Laboratory results: ChEMBL document CHEMBL4602617, “Discovery and optimization of heteroaryl piperazines as potent and selective PI3Kδ inhibitors” (Bioorg Med Chem Lett, 2020)
pEC50, pIC50: −log10 of the molar value.

What was measured:
[1] = target: Sodium channel protein type 5 subunit alpha (Homo sapiens, UniProt Q14524); experiment: Inhibition of Nav1.5 (unknown origin)
[2] = target: Nuclear receptor subfamily 1 group I member 2 (Homo sapiens, UniProt O75469); experiment: Inhibition of PXR (unknown origin)
Chain of Nuclear receptor subfamily 1 group I member 2 (O75469 whole entry): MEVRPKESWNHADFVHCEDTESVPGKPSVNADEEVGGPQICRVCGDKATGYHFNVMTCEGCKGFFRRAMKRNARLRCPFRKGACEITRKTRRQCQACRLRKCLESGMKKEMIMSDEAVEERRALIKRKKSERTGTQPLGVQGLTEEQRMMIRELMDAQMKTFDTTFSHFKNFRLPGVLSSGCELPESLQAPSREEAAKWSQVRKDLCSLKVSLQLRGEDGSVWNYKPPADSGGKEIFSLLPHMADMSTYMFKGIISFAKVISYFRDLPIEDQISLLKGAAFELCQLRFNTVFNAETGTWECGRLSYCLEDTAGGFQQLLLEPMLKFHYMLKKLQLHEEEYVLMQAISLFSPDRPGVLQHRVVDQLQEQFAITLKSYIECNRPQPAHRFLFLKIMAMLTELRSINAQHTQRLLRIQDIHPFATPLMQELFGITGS

[3] = target: Cyclin-dependent kinase 5/CDK5 activator 1 (Homo sapiens, UniProt Q00535); experiment: Inhibition of recombinant full length human GST/His-tagged CDK5/p25 expressed in baculovirus expression system using serine/threonine-12 peptide as substrate incubated for 60 mins in presence of ATP by Z'-LYTE assay
Chain of Cyclin-dependent kinase 5/CDK5 activator 1 (Q00535 whole entry): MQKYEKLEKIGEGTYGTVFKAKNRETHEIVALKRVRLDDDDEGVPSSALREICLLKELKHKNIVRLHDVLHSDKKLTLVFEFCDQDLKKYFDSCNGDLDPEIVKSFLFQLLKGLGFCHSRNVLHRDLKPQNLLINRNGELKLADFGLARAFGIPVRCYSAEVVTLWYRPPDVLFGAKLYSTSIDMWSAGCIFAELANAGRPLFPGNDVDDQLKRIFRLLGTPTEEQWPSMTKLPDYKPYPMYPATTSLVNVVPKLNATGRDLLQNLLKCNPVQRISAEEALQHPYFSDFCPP
Chain of Cyclin-dependent kinase 5/CDK5 activator 1 (Q15078 whole entry, further chain): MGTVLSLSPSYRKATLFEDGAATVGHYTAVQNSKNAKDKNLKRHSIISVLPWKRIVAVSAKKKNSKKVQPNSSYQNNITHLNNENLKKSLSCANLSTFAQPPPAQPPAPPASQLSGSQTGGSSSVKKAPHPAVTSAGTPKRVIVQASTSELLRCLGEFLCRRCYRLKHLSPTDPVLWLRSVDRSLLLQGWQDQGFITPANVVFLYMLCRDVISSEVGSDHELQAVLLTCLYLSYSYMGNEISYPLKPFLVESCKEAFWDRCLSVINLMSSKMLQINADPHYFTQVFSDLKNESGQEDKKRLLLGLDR

[4] = target: Serine/threonine-protein kinase BRSK1 (Homo sapiens, UniProt Q8TDC3); experiment: Inhibition of recombinant GST-tagged human BRSK1 expressed in baculovirus expression system using Ser/Thr-21 as substrate after 1 hr in presence of ATP by Z'-LYTE assay
[5] = target: Serine/threonine-protein kinase B-raf (Homo sapiens, UniProt P15056, V600E); experiment: Inhibition of […] N-terminal GST-tagged human BRAF V599E mutant (416 to 766 residues) expressed in baculovirus expression system using Ser/Thr 03 as substrate after 1 hr in presence of ATP by Z'-LYTE assay
[6] = target: Tyrosine-protein kinase Yes (Homo sapiens, UniProt P07947); experiment: Inhibition of full length recombinant GST-tagged human YES1 expressed in baculovirus expression system using tyr 02 peptide as substrate after 1 hr in presence of ATP by Z'-LYTE assay
[7] = target: Mitogen-activated protein kinase kinase kinase kinase 5 (Homo sapiens, UniProt Q9Y4K4); experiment: Inhibition of recombinant full length human GST-tagged KHS1 expressed in baculovirus expression system using serine/threonine-7 peptide as substrate incubated for 60 mins in presence of ATP by Z'-LYTE assay
[8] = target: Mitogen-activated protein kinase kinase kinase kinase 4 (Homo sapiens, UniProt O95819); experiment: Inhibition of recombinant GST-tagged human MAP4K4 catalytic domain expressed in baculovirus expression system using Ser/Thr 07 peptide as substrate after 1 hr in presence of ATP by Z'-LYTE assay
[9] = target: Vasoactive intestinal polypeptide receptor 1 (Homo sapiens) (UniProt P32241); experiment: Displacement of [125I]VIP from human HT-29 cells derived VIP1 at 10 uM after 60 mins by radiometric scintillation analysis relative to control; format: cell-based
[10] = target: Sodium-dependent dopamine transporter (Homo sapiens) (UniProt Q01959); experiment: Displacement of [125I]RTI-55 from full length recombinant human dopamine transporter expressed in CHO-S cells at 10 uM after 3 hrs by radiometric scintillation analysis relative to control; format: cell-based
[11] = target: Mu-type opioid receptor (Homo sapiens) (UniProt P35372); experiment: Displacement of [3H]diprenorphine from full length human recombinant Mu opioid receptor expressed in CHO-K1 cells at 10 uM measured after 60 mins by radiometric scintillation analysis relative to control; format: cell-based
[12] = target: Muscarinic acetylcholine receptor M1 (Homo sapiens) (UniProt P11229); experiment: Displacement of [3H]N-Methylscopolamine from full length human recombinant Muscarinic M1 receptor expressed in CHOK1 cells at 10 uM measured after 120 mins by radiometric scintillation analysis relative to control; format: cell-based; details: CHO-K1
Chain of Muscarinic acetylcholine receptor M1 (Homo sapiens) (P11229 whole entry): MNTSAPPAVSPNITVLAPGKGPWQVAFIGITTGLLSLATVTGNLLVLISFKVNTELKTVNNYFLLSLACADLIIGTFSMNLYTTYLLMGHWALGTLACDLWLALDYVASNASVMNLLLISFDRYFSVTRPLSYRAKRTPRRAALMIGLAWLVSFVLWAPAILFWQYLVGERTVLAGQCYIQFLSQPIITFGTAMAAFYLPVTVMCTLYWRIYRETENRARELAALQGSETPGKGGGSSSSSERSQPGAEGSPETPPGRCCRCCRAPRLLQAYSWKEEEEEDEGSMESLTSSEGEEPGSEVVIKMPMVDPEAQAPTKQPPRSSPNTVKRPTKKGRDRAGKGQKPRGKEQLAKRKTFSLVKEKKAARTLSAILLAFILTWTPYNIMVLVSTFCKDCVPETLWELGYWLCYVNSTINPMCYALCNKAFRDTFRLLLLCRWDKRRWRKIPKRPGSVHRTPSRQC

[13] = target: Melanocyte-stimulating hormone receptor (Homo sapiens) (UniProt Q01726); experiment: Displacement of [125I]NDP-alpha-MSH from full length human recombinant MC1 receptor expressed in CHO-K1 cells at 10 uM measured after 120 mins by radiometric scintillation analysis relative to control; format: cell-based
[14] = target: Histamine H2 receptor (Homo sapiens) (UniProt P25021); experiment: Displacement of [125I]aminopotentidine from full length human recombinant histamine H2 receptor expressed in CHO-K1 cells at 10 uM measured after 120 mins by radiometric scintillation analysis relative to control; format: cell-based
[15] = target: B2 bradykinin receptor (Homo sapiens) (UniProt P30411); experiment: Displacement of [3H]bradykinin from recombinant full length human recombinant bradykinin B2 receptor expressed in Chem-1 cells at 10 uM measured after 60 mins by radiometric scintillation analysis relative to control; format: cell-based
[16] = target: Casein kinase I isoform delta (Homo sapiens, UniProt P48730); experiment: Inhibition of recombinant human full-length GST-tagged CSNK1D expressed in baculovirus expression system using FRET-labeled Ser/Thr 11 peptide as substrate measured after 1 hr in presence of ATP by Z'-lyte assay
[17] = target: Serine/threonine-protein kinase DCLK2 (Homo sapiens, UniProt Q8N568); experiment: Inhibition of recombinant full length human GST-tagged DCAMKL2 expressed in baculovirus expression system using serine/threonine-17 peptide as substrate incubated for 60 mins in presence of ATP by Z'-LYTE assay
Ephrin type-A receptor 2 = Ephrin type-A receptor 2 (Homo sapiens, UniProt P29317); experiment: Inhibition of recombinant human GST-tagged EPHA2 cytoplasmic domain expressed in baculovirus expression system using tyrosine-01 peptide as substrate incubated for 60 mins in presence of ATP by Z'-Lyte assay
Ephrin type-B receptor 3 = Ephrin type-B receptor 3 (Homo sapiens, UniProt P54753); experiment: Inhibition of recombinant human GST-tagged EPHB3 catalytic domain expressed in baculovirus expression system using tyrosine-2 peptide as substrate incubated for 60 mins in presence of ATP by Z'-LYTE assay
Chain of Ephrin type-B receptor 3 (P54753 whole entry, the tested form may be a part): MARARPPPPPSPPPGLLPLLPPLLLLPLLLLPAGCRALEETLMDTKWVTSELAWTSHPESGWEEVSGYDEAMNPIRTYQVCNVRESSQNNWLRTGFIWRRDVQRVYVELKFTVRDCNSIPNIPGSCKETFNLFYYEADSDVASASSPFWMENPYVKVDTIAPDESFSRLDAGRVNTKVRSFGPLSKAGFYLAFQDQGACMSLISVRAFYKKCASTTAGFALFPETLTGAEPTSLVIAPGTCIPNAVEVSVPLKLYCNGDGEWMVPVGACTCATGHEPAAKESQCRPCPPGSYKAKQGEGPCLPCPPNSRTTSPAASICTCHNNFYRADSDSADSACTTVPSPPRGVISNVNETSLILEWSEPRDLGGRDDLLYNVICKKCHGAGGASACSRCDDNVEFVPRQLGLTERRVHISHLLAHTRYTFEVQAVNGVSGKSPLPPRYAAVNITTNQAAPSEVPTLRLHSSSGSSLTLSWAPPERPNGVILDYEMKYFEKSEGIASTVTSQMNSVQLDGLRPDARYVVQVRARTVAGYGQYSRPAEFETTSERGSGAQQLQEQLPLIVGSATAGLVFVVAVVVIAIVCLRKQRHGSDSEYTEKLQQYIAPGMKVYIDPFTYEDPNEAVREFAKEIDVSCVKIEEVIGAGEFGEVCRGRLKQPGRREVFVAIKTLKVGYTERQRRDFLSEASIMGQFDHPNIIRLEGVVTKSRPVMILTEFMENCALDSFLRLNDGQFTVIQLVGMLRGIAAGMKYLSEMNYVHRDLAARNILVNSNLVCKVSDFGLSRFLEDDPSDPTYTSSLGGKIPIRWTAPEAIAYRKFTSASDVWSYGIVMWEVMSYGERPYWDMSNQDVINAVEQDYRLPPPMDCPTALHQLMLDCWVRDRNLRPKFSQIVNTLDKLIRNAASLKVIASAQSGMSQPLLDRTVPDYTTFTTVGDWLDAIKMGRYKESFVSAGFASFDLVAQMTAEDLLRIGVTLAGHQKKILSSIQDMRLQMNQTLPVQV

[18] = target: Fibroblast growth factor receptor 4 (Homo sapiens, UniProt P22455); experiment: Inhibition of recombinant human His-tagged FGFR4 catalytic domain ([…]) expressed in baculovirus expression system using tyrosine-4 peptide as substrate incubated for 60 mins in presence of ATP by Z'-LYTE assay
[19] = target: Tyrosine-protein kinase Lyn (Homo sapiens, UniProt P07948); experiment: Inhibition of recombinant full length human GST-tagged LYN-A expressed in insect cells using tyrosine-2 peptide as substrate incubated for 60 mins in presence of ATP by Z'-LYTE assay
[20] = target: Dual specificity mitogen-activated protein kinase kinase 1 (Homo sapiens, UniProt Q02750); experiment: Inhibition of recombinant full length human His-tagged MEK1 expressed in baculovirus expression system using serine/threonine-3 peptide as substrate incubated for 60 mins in presence of ATP by Z'-LYTE assay
[21] = target: Megakaryocyte-associated tyrosine-protein kinase (Homo sapiens, UniProt P42679); experiment: Inhibition of recombinant full length human His-tagged MATK expressed in Escherichia coli using tyr-01 peptide as substrate incubated for 60 mins in presence of ATP by Z'-LYTE assay
[22] = target: Phosphorylase b kinase gamma catalytic chain, liver/testis isoform (Homo sapiens, UniProt P15735); experiment: Inhibition of recombinant full length human N-terminal GST-tagged PHKG2 expressed in baculovirus expression system using serine/threonine-7 peptide as substrate incubated for 60 mins in presence of ATP by Z'-LYTE assay
[23] = target: Protein kinase C beta type (Homo sapiens, UniProt P05771); experiment: Inhibition of recombinant full length human GST-tagged PKCbeta1 expressed in insect expression system using serine/threonine-7 peptide as substrate incubated for 60 mins in presence of ATP by Z'-LYTE assay
[24] = target: Proto-oncogene tyrosine-protein kinase Src (Homo sapiens, UniProt P12931); experiment: Inhibition of recombinant full length human His-tagged SRC expressed in baculovirus expression system using tyrosine-2 peptide as substrate incubated for 60 mins in presence of ATP by Z'-LYTE assay
Chain of Proto-oncogene tyrosine-protein kinase Src (P12931 2-536 limits assumed): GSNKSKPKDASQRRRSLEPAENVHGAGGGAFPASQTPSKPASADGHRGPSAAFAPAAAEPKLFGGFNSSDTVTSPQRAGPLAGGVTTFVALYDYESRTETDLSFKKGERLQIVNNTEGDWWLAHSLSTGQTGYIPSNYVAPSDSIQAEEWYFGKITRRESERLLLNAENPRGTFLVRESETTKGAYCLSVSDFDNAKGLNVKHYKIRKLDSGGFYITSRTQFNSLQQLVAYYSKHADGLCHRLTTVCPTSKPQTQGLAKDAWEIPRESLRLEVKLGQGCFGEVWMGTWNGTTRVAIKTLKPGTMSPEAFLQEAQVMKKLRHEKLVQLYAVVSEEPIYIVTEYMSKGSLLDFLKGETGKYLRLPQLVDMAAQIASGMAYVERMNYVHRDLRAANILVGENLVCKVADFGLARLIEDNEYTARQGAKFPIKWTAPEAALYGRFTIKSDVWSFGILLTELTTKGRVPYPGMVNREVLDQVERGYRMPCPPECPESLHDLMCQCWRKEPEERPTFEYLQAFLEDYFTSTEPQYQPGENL

Chain of Sodium channel protein type 5 subunit alpha (Q14524 whole entry): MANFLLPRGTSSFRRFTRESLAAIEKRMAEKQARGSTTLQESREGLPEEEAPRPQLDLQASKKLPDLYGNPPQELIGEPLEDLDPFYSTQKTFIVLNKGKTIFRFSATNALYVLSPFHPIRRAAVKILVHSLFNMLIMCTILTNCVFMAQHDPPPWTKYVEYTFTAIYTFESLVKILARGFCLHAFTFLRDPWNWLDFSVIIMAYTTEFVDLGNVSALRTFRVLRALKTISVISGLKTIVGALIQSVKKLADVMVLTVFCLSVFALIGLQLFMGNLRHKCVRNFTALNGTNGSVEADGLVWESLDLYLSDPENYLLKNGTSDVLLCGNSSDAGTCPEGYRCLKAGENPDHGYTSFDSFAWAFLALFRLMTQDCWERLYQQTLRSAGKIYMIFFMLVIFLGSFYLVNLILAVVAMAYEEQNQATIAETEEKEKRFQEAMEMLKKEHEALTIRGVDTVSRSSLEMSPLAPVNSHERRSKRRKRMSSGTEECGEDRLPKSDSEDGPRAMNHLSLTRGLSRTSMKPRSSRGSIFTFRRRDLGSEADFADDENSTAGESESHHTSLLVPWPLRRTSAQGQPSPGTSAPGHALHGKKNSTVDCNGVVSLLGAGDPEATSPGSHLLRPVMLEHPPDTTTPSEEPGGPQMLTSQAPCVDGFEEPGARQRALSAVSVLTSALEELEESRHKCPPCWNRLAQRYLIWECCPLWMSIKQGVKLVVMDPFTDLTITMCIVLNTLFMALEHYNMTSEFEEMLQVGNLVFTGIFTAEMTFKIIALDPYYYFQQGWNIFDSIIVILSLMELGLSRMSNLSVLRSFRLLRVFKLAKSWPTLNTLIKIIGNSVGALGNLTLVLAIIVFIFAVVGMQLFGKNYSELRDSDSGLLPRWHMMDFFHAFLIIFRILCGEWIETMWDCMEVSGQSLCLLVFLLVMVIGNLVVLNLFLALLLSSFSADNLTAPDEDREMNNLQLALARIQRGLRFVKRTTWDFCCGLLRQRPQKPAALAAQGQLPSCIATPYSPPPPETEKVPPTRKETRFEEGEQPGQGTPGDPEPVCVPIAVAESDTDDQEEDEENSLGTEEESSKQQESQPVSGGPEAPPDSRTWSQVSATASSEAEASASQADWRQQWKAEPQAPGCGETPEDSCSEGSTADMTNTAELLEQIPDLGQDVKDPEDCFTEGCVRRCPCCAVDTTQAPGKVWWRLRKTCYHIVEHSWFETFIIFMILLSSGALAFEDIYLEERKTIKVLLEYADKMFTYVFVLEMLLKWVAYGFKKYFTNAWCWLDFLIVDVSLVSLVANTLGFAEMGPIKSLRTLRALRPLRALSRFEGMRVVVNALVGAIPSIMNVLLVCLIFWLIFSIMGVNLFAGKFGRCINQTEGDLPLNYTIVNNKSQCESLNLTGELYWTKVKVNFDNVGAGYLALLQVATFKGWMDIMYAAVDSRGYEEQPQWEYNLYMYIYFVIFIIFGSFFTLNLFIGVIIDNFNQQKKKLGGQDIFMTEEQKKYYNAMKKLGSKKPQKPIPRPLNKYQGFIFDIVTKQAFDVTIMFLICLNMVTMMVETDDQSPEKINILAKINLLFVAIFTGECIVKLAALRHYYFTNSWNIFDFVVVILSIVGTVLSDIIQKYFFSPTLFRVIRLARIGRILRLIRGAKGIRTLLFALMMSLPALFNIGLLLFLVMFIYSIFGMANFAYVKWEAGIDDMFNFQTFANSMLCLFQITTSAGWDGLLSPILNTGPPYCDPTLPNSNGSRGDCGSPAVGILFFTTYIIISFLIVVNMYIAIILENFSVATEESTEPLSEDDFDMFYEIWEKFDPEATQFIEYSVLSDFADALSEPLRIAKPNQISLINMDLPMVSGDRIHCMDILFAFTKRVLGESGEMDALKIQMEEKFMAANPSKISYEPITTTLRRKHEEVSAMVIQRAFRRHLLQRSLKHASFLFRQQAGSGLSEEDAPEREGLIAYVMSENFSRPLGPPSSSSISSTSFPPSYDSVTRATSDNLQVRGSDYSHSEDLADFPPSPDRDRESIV

C[C@@H]1C[C@H]1C(=O)N1CCN(c2cnc(C#N)c(-c3cnn(C)c3)n2)C[C@H]1C
pIC50 [1]: < 4.52 | pEC50 [2]: < 4.52 | pIC50 [3]: < 4.00 | pIC50 [4]: < 4.00 | pIC50 [5]: < 4.00 | pIC50 [6]: 4.43 | pIC50 [7]: 4.52 | pIC50 [8]: 4.58 | inhibition [9]: 1% | inhibition [10]: 1% | inhibition [11]: 5% | inhibition [12]: -3% | inhibition [13]: 3% | inhibition [14]: 6% | inhibition [15]: 6% | pIC50 [16]: < 4.00 | pIC50 [17]: < 4.00 | pIC50 (Ephrin type-A receptor 2): < 4.00 | pIC50 (Ephrin type-B receptor 3): < 4.00 | pIC50 [18]: < 4.00 | pIC50 [19]: < 4.00 | pIC50 [20]: < 4.00 | pIC50 [21]: < 4.00 | pIC50 [22]: < 4.00 | pIC50 [23]: < 4.00 | pIC50 [24]: < 4.00
